Results: patent US7582604B2, “Template-fixed peptidomimetics with antibacterial activity” (Polyphor Ltd., priority 2002, dated 2009)
Converted amounts (≈) assume the structure as drawn. Where a SMILES comes first, the peptide text is derived from it. [ ]: non-standard residue; d: D form.

Legend:
[1] = test system: Acinetobacter V12 21143/1 (clinical isolate); format: cell-based
Description: (§1) Lyophilized peptides were weighed on a Microbalance (Mettler MT5) and dissolved in sterile water containing 0.01% acetic acid.
(§2) The selective antimicrobial activities of the peptides were determined by the standard NCCLS broth microdilution method (see ref 1, below) examined in sterile 96-wells plates (Nunclon polystyrene microtiter plates) in a total volume of 100 μl. Innocula of the microorganisms were prepared with 0.5 Mcfarland standard and then diluted into Müeller-Hinton (MH^+) broth to give appr. 10^6 colony forming units (CFU)/rnl for bacteria Aliquots (50 μl) of the innocula were added to 50 μl of MH broth containing the peptide in serial twofold dilutions. For the screening of the peptides displaying selectivity, the following microorganisms were used: Escherichia coli (ATCC 25922), Pseudomonas aeruginosa (P. aeruginosa) (ATCC 27853), Staphylococcus aureus (ATCC 29213 and ATCC 25923), and clinical isolates of Pseudomonas aeruginosa (P. aeruginosa) V02 16085 and Acinetobacter (Acinetobacter V04 19905/1, Acinetobacter V12 21143/1 and Acinetobacter V12 21193/1). Antimicrobial activities of the peptides were expressed as the minimal inhibitory concentration (MIC) in μg/ml at which no visible growth was observed after 18-20 hours of incubation of the microtiter plates at 37° C.
(§3) Salt sensitivity of the peptides was tested by the microtiter serial dilution assay as described above. Only MH broth was replaced by MH broth containing 0.9% NaCl.

[2] = test system: Escherichia coli ATCC 25922; format: cell-based
Description: as §1, §2, §3

[3] = test system: Acinetobacter V12 21193/1 (clinical isolate); format: cell-based
Description: as §1, §2, §3

[4] = test system: Escherichia coli ATCC 43827; format: cell-based
[5] = test system: human red blood cells (hRBC); format: cell-based; settings: red cells of human, 1 h
Description: The peptides were tested for their hemolytic activity against human red blood cells (hRBC). Fresh hRBC were washed three times with phosphate buffered saline (PBS) by centrifugation for 10 min at 2000×g. Peptides at a concentration of 100 μg/ml were incubated with 20% v/v hRBC for 1 hour at 37° C. The final erythrocyte concentration was appr. 0.9×10^9/ml. A value of 0% resp. 100% cell lysis was determined by incubation of the hRBC in the presence of PBS alone and resp. 0.1% Triton X-100 in H2O. The samples were centrifuged and the supernatant was 20 fold diluted in PBS buffer and the optical density (OD) of the sample at […] was measured. The 100% lysis value (OD540H2O) gave an OD of approximately 1.6-2.0. Percent hemolysis was calculated as follows: […]

[6] = test system: Staphylococcus aureus ATCC 29213; assay: MIC, NCCLS broth microdilution in Mueller-Hinton broth; format: cell-based; settings: 18-20 hours at 37° C.
Description: as §1, §2

[7] = test system: P. aeruginosa VO216085 (clinical isolate); format: cell-based, Pseudomonas aeruginosa
Description: as §1, §2, §3

[8] = test system: P. aeruginosa ATCC 278853; format: cell-based, Pseudomonas aeruginosa
Description: as §1, §2, §3

| Structure (SMILES) | Minimal inhibitory concentration (MIC) Acinetobacter V12 21143/1 [1] [µg/mL] | Minimal inhibitory concentration (MIC) Escherichia coli ATCC 25922 [2] [µg/mL] | Minimal inhibitory concentration (MIC) Acinetobacter V12 21193/1 [3] [µg/mL] | Minimal inhibitory concentration (MIC) Escherichia coli ATCC 43827 [4] [µg/mL] | Hemolysis at 100 μg/ml (percentage hemolysis) [5] [%] | Minimal inhibitory concentration (MIC) Staphylococcus attreus ATCC 29213 [6] [µg/mL] | Minimal inhibitory concentration (MIC) P. aeruginosa VO216085 [7] [µg/mL] | Minimal inhibitory concentration (MIC) P. aeruginosa ATCC 278853 [8] [µg/mL] |
| --- | --- | --- | --- | --- | --- | --- | --- | --- |
| CC(C)C[C@@H]1NC(=O)[C@H](Cc2c[nH]c3ccccc23)NC(=O)[C@H](CCCNC(=N)N)NC(=O)[C@@H]2CCCN2C(=O)[C@H]2CCCN2C(=O)[C@H](CCCNC(=N)N)NC(=O)[C@H](Cc2ccc(O)cc2)NC(=O)[C@H]([C@@H](C)O)NC(=O)[C@H](CCCCN)NC(=O)[C@H](Cc2c[nH]c3ccccc23)NC(=O)[C@H](CCCNC(=N)N)NC(=O)[C@H](CCCNC(=N)N)NC(=O)[C@H](CCCCN)NC(=O)[C@H](CCCCN)NC1=O [compound 3] (cyclo(RWLKKRRWKTYR[dP]P)) | 25 (≈ 12.8 µM) | 200 (≈ 102 µM) | 100 (≈ 51.2 µM) | 200 (≈ 102 µM) | 1.5 | 100 (≈ 51.2 µM) | 9.4 (≈ 4.81 µM) | 200 (≈ 102 µM) |
| CC(C)C[C@@H]1NC(=O)[C@H](Cc2c[nH]c3ccccc23)NC(=O)[C@H](CCCNC(=N)N)NC(=O)[C@@H]2CCCN2C(=O)[C@H]2CCCN2C(=O)[C@H](CCCNC(=N)N)NC(=O)[C@H](C(C)C)NC(=O)[C@H](Cc2ccc(O)cc2)NC(=O)[C@H](CCCCN)NC(=O)[C@H](Cc2c[nH]c3ccccc23)NC(=O)[C@H](CCCNC(=N)N)NC(=O)[C@H](CCCNC(=N)N)NC(=O)[C@H](CCCCN)NC(=O)[C@H](CCCCN)NC1=O [Ex. 2] (cyclo(RWLKKRRWKYVR[dP]P)) | 12.5 (≈ 6.41 µM) | 100 (≈ 51.2 µM) | 25 (≈ 12.8 µM) | 100 (≈ 51.2 µM) | 0.5 | 100 (≈ 51.2 µM) | 6.2 (≈ 3.18 µM) | 9.4 (≈ 4.82 µM) |
| CC(C)C[C@@H]1NC(=O)[C@H](Cc2c[nH]c3ccccc23)NC(=O)[C@H](CCCNC(=N)N)NC(=O)[C@@H]2CCCN2C(=O)[C@H]2CCCN2C(=O)[C@H](CCCNC(=N)N)NC(=O)[C@H](Cc2ccc(O)cc2)NC(=O)[C@H](Cc2ccc(O)cc2)NC(=O)[C@H](C(C)C)NC(=O)[C@H](Cc2c[nH]c3ccccc23)NC(=O)[C@H](CCCNC(=N)N)NC(=O)[C@H](CCCNC(=N)N)NC(=O)[C@H](CCCCN)NC(=O)[C@H](CCCCN)NC1=O [compound 6] (cyclo(RWLKKRRWVYYR[dP]P)) | – | – | – | – | 0.5 | 100 (≈ 50.3 µM) | – | – |
| CC(C)C[C@@H]1NC(=O)[C@H](Cc2c[nH]c3ccccc23)NC(=O)[C@H](CCCNC(=N)N)NC(=O)[C@@H]2CCCN2C(=O)[C@H]2CCCN2C(=O)[C@H](CCCNC(=N)N)NC(=O)[C@H](Cc2ccc(O)cc2)NC(=O)[C@H](CCC(N)=O)NC(=O)[C@H](CCCCN)NC(=O)[C@H](Cc2c[nH]c3ccccc23)NC(=O)[C@H](CCCNC(=N)N)NC(=O)[C@H](CCCNC(=N)N)NC(=O)[C@H](CCCCN)NC(=O)[C@H](CCCCN)NC1=O [compound 4] (cyclo(RWLKKRRWKQYR[dP]P)) | 12.5 (≈ 6.31 µM) | 100 (≈ 50.5 µM) | 25 (≈ 12.6 µM) | 200 (≈ 101 µM) | 0.6 | 100 (≈ 50.5 µM) | 3.1 (≈ 1.57 µM) | 6.2 (≈ 3.13 µM) |
| CC(C)C[C@@H]1NC(=O)[C@H](Cc2c[nH]c3ccccc23)NC(=O)[C@H](CCCNC(=N)N)NC(=O)[C@@H]2CCCN2C(=O)[C@H]2CCCN2C(=O)[C@H](CCCNC(=N)N)NC(=O)[C@H](CCC(N)=O)NC(=O)[C@H](Cc2ccc(O)cc2)NC(=O)[C@H](CCCCN)NC(=O)[C@H](Cc2c[nH]c3ccccc23)NC(=O)[C@H](CCCNC(=N)N)NC(=O)[C@H](CCCNC(=N)N)NC(=O)[C@H](CCCCN)NC(=O)[C@H](CCCCN)NC1=O [compound 7] (cyclo(RWLKKRRWKYQR[dP]P)) | – | – | – | – | 0.7 | 200 (≈ 101 µM) | – | – |
| CC(C)C[C@@H]1NC(=O)[C@H](Cc2c[nH]c3ccccc23)NC(=O)[C@H](CCCNC(=N)N)NC(=O)[C@@H]2CCCN2C(=O)[C@H]2CCCN2C(=O)[C@H](CCCNC(=N)N)NC(=O)[C@H](CC(C)C)NC(=O)[C@H](Cc2ccc(O)cc2)NC(=O)[C@H](CCCCN)NC(=O)[C@H](Cc2c[nH]c3ccccc23)NC(=O)[C@H](CCCNC(=N)N)NC(=O)[C@H](CCCNC(=N)N)NC(=O)[C@H](CCCCN)NC(=O)[C@H](CCCCN)NC1=O [compound 8] (cyclo(RWLKKRRWKYLR[dP]P)) | – | – | – | – | 0.4 | 100 (≈ 50.9 µM) | – | – |
| CC(C)C[C@@H]1NC(=O)[C@H](Cc2c[nH]c3ccccc23)NC(=O)[C@H](CCCNC(=N)N)NC(=O)[C@H](CCCNC(=N)N)NC(=O)[C@H](CCCCN)NC(=O)[C@H](CCCCN)NC(=O)[C@H](CC(C)C)NC(=O)[C@H](Cc2c[nH]c3ccccc23)NC(=O)[C@H](CCCNC(=N)N)NC(=O)[C@@H]2CCCN2C(=O)[C@H]2CCCN2C(=O)[C@H](CCCNC(=N)N)NC(=O)[C@H](Cc2ccc(O)cc2)NC(=O)[C@H](Cc2ccc(O)cc2)NC1=O [compound 1] (cyclo(RWLKKRRWLYYR[dP]P)) | 6.2 (≈ 3.1 µM) | 100 (≈ 50 µM) | 6.2 (≈ 3.1 µM) | 200 (≈ 100 µM) | 0.5 | 25 (≈ 12.5 µM) | 50 (≈ 25 µM) | 50 (≈ 25 µM) |
| CC(C)C[C@@H]1NC(=O)[C@H](Cc2c[nH]c3ccccc23)NC(=O)[C@H](CCCNC(=N)N)NC(=O)[C@@H]2CCCN2C(=O)[C@H]2CCCN2C(=O)[C@H](CCCNC(=N)N)NC(=O)[C@H](Cc2ccc(O)cc2)NC(=O)[C@H](Cc2ccc(O)cc2)NC(=O)[C@H](CCCCN)NC(=O)[C@H](Cc2c[nH]c3ccccc23)NC(=O)[C@H](CCCNC(=N)N)NC(=O)[C@H](CCCNC(=N)N)NC(=O)[C@H](CCCCN)NC(=O)[C@H](C(C)C)NC1=O [compound 5] (cyclo(RWLVKRRWKYYR[dP]P)) | – | – | – | – | 0.5 | 100 (≈ 50.3 µM) | – | – |
